Results from PubChem BioAssay (NCI).
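Cultured in 96-well plates, cells were exposed to test compound for 48 hours across five concentrations. Abbreviation: GI50, concentration required for 50% inhibition of growth. TGI denotes the concentration required for complete inhibition of growth.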

What was measured:
Test in all cases: NCI-60 cell line screen, 48 h
EKVX NSCLC = test system: EKVX NSCLC
U251 CNS = test system: U251 CNS
SK-MEL-28 melanoma = test system: SK-MEL-28 melanoma
ACHN renal = test system: ACHN renal
MOLT-4 leukemia = test system: MOLT-4 leukemia
HCT-15 colon = test system: HCT-15 colon
OVCAR-5 ovarian = test system: OVCAR-5 ovarian
CCRF-CEM leukemia = test system: CCRF-CEM leukemia
RXF 393 renal = test system: RXF 393 renal
A498 renal = test system: A498 renal

| SMILES | GI50 (EKVX NSCLC) [µM] | TGI (EKVX NSCLC) [µM] | GI50 (U251 CNS) [µM] | TGI (U251 CNS) [µM] | GI50 (SK-MEL-28 melanoma) [µM] | TGI (SK-MEL-28 melanoma) [µM] | GI50 (ACHN renal) [µM] | TGI (ACHN renal) [µM] | GI50 (MOLT-4 leukemia) [µM] | TGI (MOLT-4 leukemia) [µM] | GI50 (HCT-15 colon) [µM] | TGI (HCT-15 colon) [µM] | GI50 (OVCAR-5 ovarian) [µM] | TGI (OVCAR-5 ovarian) [µM] | GI50 (CCRF-CEM leukemia) [µM] | TGI (CCRF-CEM leukemia) [µM] | GI50 (RXF 393 renal) [µM] | TGI (RXF 393 renal) [µM] | GI50 (A498 renal) [µM] | TGI (A498 renal) [µM] |
| --- | --- | --- | --- | --- | --- | --- | --- | --- | --- | --- | --- | --- | --- | --- | --- | --- | --- | --- | --- | --- |
| CCCOC(=O)N[C@H]1CCc2c(Cl)c(OC)c(OC)c(OC)c2-c2ccc(SC)c(=O)cc21 | < 0.01 | > 100 | < 0.01 | 12.2 | 2.02 | 23.5 | < 0.01 | 23.6 | < 0.01 | 23.6 | < 0.01 | 16.6 | < 0.013 | > 76.7 | < 0.01 | > 100 | < 0.01 | 8.41 | < 0.01 | < 0.01 |
| O=C1C=C(Nc2ccccc2C(=O)CC(=O)C(=O)Nc2cccc([N+](=O)[O-])c2)c2ccccc2C1=O |  | > 100 |  | > 100 |  | > 100 |  | > 100 |  | > 100 |  | > 100 |  | > 100 |  | 87.8 |  | > 100 |  | > 100 |
| CN(c1ccc(NC(=O)Nc2c(Cl)cccc2Cl)cc1)c1ccnc(Nc2cccc(CS(C)(=O)=O)c2)n1 | 6.31 | > 25 | 2.62 | 9.61 | 3.56 | 9.47 | 3.48 | 8.79 | > 25 | > 25 | 5.6 | > 25 | 6.2 | > 19.5 | 0.109 | > 25 | 2.23 | 8.08 | 4.4 | > 20.3 |
| COc1cc(C2c3cc4c(cc3OC(C)(N3CCCC3)C2C)OCO4)cc(OC)c1OC (stereo not given) |  | > 50.8 |  | 23.3 |  | > 100 |  | > 79.9 |  | 10.6 |  | 11.3 |  | > 20.5 |  | > 50.3 |  | 2.93 |  | 5.7 |
| CCCCCCCCn1ccc2cc(NC(=O)Cn3cc(CN4CCCCCC4)nn3)ccc21 | 1.68 | 3.43 | 1.83 | 3.29 | 1.82 | 3.3 | 1.73 | 3.11 | 2.05 | 5.08 | 1.6 | 3.17 | 1.82 | 3.86 | 2.25 | 7.41 | 1.66 | 3.24 | 1.76 | 3.2 |
| CCOc1cccc(/C=N/NC(=O)c2cccc(Nc3ccnc(C(F)(F)F)c3)c2)c1O | 1.55 | > 64.5 | 0.886 | > 47.1 | 2.31 | 36.6 | 0.699 | > 50.3 | 0.232 | 2.08 | 1.1 | > 100 | 2.33 | 60.7 | 0.18 | > 100 | 1.66 | 44.6 | 15 | > 76.9 |
| CNC(=O)OCc1nc(SSC(C)(C)C)n(C)c1COC(=O)NC |  | 20.7 |  | 25.6 |  | 4.67 |  | 8.71 |  | 4.16 |  | 4.14 |  | 21 |  | 4.54 |  | 2.84 |  | 20.4 |
